Measured values reported in patent US12338255B2, “Bicyclic substituted sulfonylurea compounds as inhibitors of interleukin-1 activity” (Viva Star Biosciences (Suzhou) Co., Ltd., priority 2022, dated 2025).

Target: T1, NLRP3 (Homo sapiens, UniProt Q96P20)
T1 construct: Seed THP-1 cells (5.56*10^5 cells/mL) containing 1.0 ug/mL LPS; endogenous in cells; host or cells: THP-1 cells
Test: THP-1 LPS/nigericin IL1β release (pyroptosis assay), HTRF
Type: cell-based
Conditions: NLRP3 inhibitory activity; THP-1 cells, 1.0 ug/mL LPS, compound 3 hrs, nigericin 5 uM 1 hr, IL1β in supernatant
Description: The following method was used for compound screening. • 1. Seed THP-1 cells (5.56*10^5 cells/mL) containing 1.0 ug/mL LPS (SIGMA, L6529) in 45 uL RPMI 1640 medium (without FBS) into 384-well plate (Thermo Scientific, 164688). • 2. Add 5 uL compound (10 doses starting from 5 uM, 1:3 dilution) or vehicle (0.05% DMSO in medium) to the appropriate wells. • 3. Centrifuge the plates at 1000 rpm for 2 mins and incubate for 3 hrs at 37° C., 5% CO2. • 4. Add 5 uL nigericin (MEC, HY-100381) (final conc. 5 uM) to sample wells and positive control wells; add 5 uL RPMI 1640 medium to negative control wells. • 5. Centrifuge plates at 1000 rpm for 2 mins and incubate for 1 hr at 37° C., 5% CO2. • 6. At the end of the incubation period, centrifuge plates at 1000 rpm for 6 mins and transfer 8 uL supernatant into 384-well assay plates (PerkinElmer, 6008280). • 7. Add 8 ul RPMI 1640 medium into each well and spin down for 10 secs. • 8. Prepare the standard solutions and pre-mixed IL1β antibodie solution of Human IL1β kits (PerkinElmer, 62HIL1BPEH) according to the instruction. • 9. Add 16 uL standard solutions into clear wells of 384-well assay plates. • 10. Add 4 uL pre-mixed IL1β antibodie solution to all wells including sample wells, positive control wells, negative control wells and standard solutions wells. • 11. Seal the plates, spin down for 10 secs, incubation for overnight at RT and read on an HTRF® compatible reader (BMG LABTECH, PHERAstar FS). • 12. The concentrations of IL1β for treated wells are calculated by the standard curve. • 13. The IC50 data is fitted to a non-liner regression equation (log inhibitor vs. response—Variable slope four parameters)).

T1 sequence (Q96P20 whole entry): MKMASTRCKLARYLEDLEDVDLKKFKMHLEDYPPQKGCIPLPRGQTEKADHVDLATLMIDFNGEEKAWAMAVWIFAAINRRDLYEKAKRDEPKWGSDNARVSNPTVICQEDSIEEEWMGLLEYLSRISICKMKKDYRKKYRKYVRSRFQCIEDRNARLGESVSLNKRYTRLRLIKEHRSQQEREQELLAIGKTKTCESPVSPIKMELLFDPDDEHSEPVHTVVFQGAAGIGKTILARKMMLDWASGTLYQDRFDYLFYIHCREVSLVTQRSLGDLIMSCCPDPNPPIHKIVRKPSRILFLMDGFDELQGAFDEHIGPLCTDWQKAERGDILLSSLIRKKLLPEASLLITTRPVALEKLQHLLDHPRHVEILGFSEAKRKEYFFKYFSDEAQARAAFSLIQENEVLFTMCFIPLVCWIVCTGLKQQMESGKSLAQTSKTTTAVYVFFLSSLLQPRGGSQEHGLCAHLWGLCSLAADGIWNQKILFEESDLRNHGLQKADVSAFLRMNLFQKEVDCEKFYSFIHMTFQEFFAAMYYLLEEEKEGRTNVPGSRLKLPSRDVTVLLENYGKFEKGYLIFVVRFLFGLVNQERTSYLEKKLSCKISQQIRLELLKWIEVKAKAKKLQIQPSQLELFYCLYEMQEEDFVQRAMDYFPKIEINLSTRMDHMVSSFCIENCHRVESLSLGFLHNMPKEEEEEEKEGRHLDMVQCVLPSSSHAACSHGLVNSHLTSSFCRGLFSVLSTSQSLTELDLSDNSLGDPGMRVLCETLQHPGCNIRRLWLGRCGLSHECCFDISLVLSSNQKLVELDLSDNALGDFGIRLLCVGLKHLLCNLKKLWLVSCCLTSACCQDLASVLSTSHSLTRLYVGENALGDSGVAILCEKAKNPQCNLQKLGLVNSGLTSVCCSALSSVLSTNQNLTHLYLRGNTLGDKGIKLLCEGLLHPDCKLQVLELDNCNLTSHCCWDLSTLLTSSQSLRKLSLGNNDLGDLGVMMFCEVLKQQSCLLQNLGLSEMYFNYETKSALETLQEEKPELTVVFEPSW

| SMILES | IC50 [nM] |
| --- | --- |
| O=C(Nc1c(-c2ccc3cncn3c2)ccc2c1CCC2)NS(=O)(=O)c1cc2n(n1)CCO[C@@H]2C1CC1 (single isomer, unassigned) [Example 12] | 100 to 500 |
| O=C(Nc1c(-c2ccn3ncnc3c2)ccc2c1CCC2)NS(=O)(=O)c1cc2n(n1)CCO[C@@H]2C1CC1 (single isomer, unassigned) [Example 13] | 100 to 500 |
| O=C(Nc1c(-c2ccn3nccc3c2)ccc2c1CCC2)NS(=O)(=O)c1cnc2c(c1)N(C1CC1)CCO2 [Example 24, 1-cyclopropyl-N-((5-(pyrazolo[1,5-a]pyridin-5-yl)-2,3-dihydro-1H-inden-4-yl)carbamoyl)-2,3-dihydro-1H-pyrido[2,3-b][1,4]oxazine-7-sulfonamide] | ≤ 100 |
| O=C(Nc1c(-c2ccn3nccc3c2)ccc2c1CCC2)NS(=O)(=O)c1cc2n(n1)CCO[C@@H]2C1CC1 (single isomer, unassigned) [Example 1] | ≤ 100 |
| CO[C@@H]1COc2c(S(=O)(=O)NC(=O)Nc3c4c(cc(C)c3-c3ccc5ccnn5c3)CCC4)cnn2C1 [Example 29, (S)-6-methoxy-N-((6-methyl-5-(pyrazolo[1,5-a]pyridin-6-yl)-2,3-dihydro-1H-inden-4-yl)carbamoyl)-6,7-dihydro-5H-pyrazolo[5,1-b][1,3]oxazine-3-sulfonamide] | ≤ 100 |
| O=C(Nc1c(-c2ccc3ccnn3c2)ccc2c1CCC2)NS(=O)(=O)c1cc2n(n1)CCO[C@H]2C1CC1 (single isomer, unassigned) [Example 6] | 100 to 500 |
| Cc1cc2c(c(NC(=O)NS(=O)(=O)c3cnn4c3COCC4)c1-c1ccnc3[nH]ccc13)CCC2 [Example 21, N-((6-methyl-5-(1H-pyrrolo[2,3-b]pyridin-4-yl)-2,3-dihydro-1H-inden-4-yl)carbamoyl)-6,7-dihydro-4H-pyrazolo[5,1-c][1,4]oxazine-3-sulfonamide] | 100 to 500 |
| Cc1cc2c(c(NC(=O)NS(=O)(=O)c3cc4n(n3)CCOC4(C)C)c1-c1ccnc3[nH]ccc13)CCC2 [Example 20, 4,4-dimethyl-N-((6-methyl-5-(1H-pyrrolo[2,3-b]pyridin-4-yl)-2,3-dihydro-1H-inden-4-yl)carbamoyl)-6,7-dihydro-4H-pyrazolo[5,1-c][1,4]oxazine-2-sulfonamide] | 100 to 500 |
| Cc1cc2c(c(NC(=O)NS(=O)(=O)c3cc4n(n3)CCO[C@@H]4C3CC3)c1-c1ccn3nccc3c1)CCC2 (single isomer, unassigned) [Example 9] | ≤ 100 |
| Cc1cc2c(c(NC(=O)NS(=O)(=O)c3cn4c(n3)C(C3CC3)OCC4)c1-c1ccnc3[nH]ccc13)CCC2 (stereo not drawn) [Example 19, 8-cyclopropyl-N-((6-methyl-5-(1H-pyrrolo[2,3-b]pyridin-4-yl)-2,3-dihydro-1H-inden-4-yl)carbamoyl)-5,6-dihydro-8H-imidazo[2,1-c][1,4]oxazine-2-sulfonamide] | 500 to 1000 |
| O=C(Nc1c(-c2ccc3ccnn3c2)ccc2c1CCC2)NS(=O)(=O)c1cc2n(n1)CCO[C@@H]2C1CC1 (single isomer, unassigned) [Example 2] | 100 to 500 |
| CO[C@@H]1COc2c(S(=O)(=O)NC(=O)Nc3c4c(cc(C)c3-c3ccc5nccn5c3)CCC4)cnn2C1 [Example 30, (S)-N-((5-(imidazo[1,2-a]pyridin-6-yl)-6-methyl-2,3-dihydro-1H-inden-4-yl)carbamoyl)-6-methoxy-6,7-dihydro-5H-pyrazolo[5,1-b][1,3]oxazine-3-sulfonamide] | ≤ 100 |
| Cc1cc2c(c(NC(=O)NS(=O)(=O)c3cnn4c3COCC4)c1-c1ccn3nccc3c1)CCC2 [Example 26, N-((6-methyl-5-(pyrazolo[1,5-a]pyridin-5-yl)-2,3-dihydro-1H-inden-4-yl)carbamoyl)-6,7-dihydro-4H-pyrazolo[5,1-c][1,4]oxazine-3-sulfonamide] | 100 to 500 |
| O=C(Nc1c(-c2ccn3nncc3c2)ccc2c1CCC2)NS(=O)(=O)c1cc2n(n1)CCO[C@H]2C1CC1 (single isomer, unassigned) [Example 7] | 100 to 500 |
| O=C(Nc1c(-c2ccn3cncc3c2)ccc2c1CCC2)NS(=O)(=O)c1cc2n(n1)CCO[C@@H]2C1CC1 (single isomer, unassigned) [Example 10] | 100 to 500 |
| Cc1cc2c(c(NC(=O)NS(=O)(=O)c3cc4n(n3)CCOC4)c1-c1ccn3nccc3c1)CCC2 [Example 23, N-((6-methyl-5-(pyrazolo[1,5-a]pyridin-5-yl)-2,3-dihydro-1H-inden-4-yl)carbamoyl)-6,7-dihydro-4H-pyrazolo[5,1-c][1,4]oxazine-2-sulfonamide] | ≤ 100 |
| Cc1cc2c(c(NC(=O)NS(=O)(=O)c3cc4n(n3)CCOC4(C)C)c1-c1ccn3nccc3c1)CCC2 [Example 22, 4,4-dimethyl-N-((6-methyl-5-(pyrazolo[1,5-a]pyridin-5-yl)-2,3-dihydro-1H-inden-4-yl)carbamoyl)-6,7-dihydro-4H-pyrazolo[5,1-c][1,4]oxazine-2-sulfonamide] | ≤ 100 |
| O=C(Nc1c(-c2ccn3nncc3c2)ccc2c1CCC2)NS(=O)(=O)c1cc2n(n1)CCO[C@@H]2C1CC1 (single isomer, unassigned) [Example 3] | ≤ 100 |
| O=C(Nc1c(-c2ccn3nccc3c2)ccc2c1CCC2)NS(=O)(=O)c1cc2n(n1)C(C1CC1)COC2 (stereo not drawn) [Example 16, 7-cyclopropyl-N-((5-(pyrazolo[1,5-a]pyridin-5-yl)-2,3-dihydro-1H-inden-4-yl)carbamoyl)-6,7-dihydro-4H-pyrazolo[5,1-c][1,4]oxazine-2-sulfonamide] | 100 to 500 |
| CO[C@@H]1COc2c(S(=O)(=O)NC(=O)Nc3c4c(cc(C)c3-c3ccn5ccnc5c3)CCC4)cnn2C1 [Example 28, (S)-N-((5-(imidazo[1,2-a]pyridin-7-yl)-6-methyl-2,3-dihydro-1H-inden-4-yl)carbamoyl)-6-methoxy-6,7-dihydro-5H-pyrazolo[5,1-b][1,3]oxazine-3-sulfonamide] | ≤ 100 |
| O=C(Nc1c(-c2ccn3ccnc3c2)ccc2c1CCC2)NS(=O)(=O)c1cc2n(n1)CCO[C@@H]2C1CC1 (single isomer, unassigned) [Example 11] | 100 to 500 |
| Cc1cc2c(c(NC(=O)NS(=O)(=O)c3cc4n(n3)CCOC43CCC3)c1-c1ccn3nccc3c1)CCC2 [Example 17, N-((6-methyl-5-(pyrazolo[1,5-a]pyridin-5-yl)-2,3-dihydro-1H-inden-4-yl)carbamoyl)-6′,7′-dihydrospiro[cyclobutane-1,4′-pyrazolo[5,1-c][1,4]oxazine]-2′-sulfonamide] | ≤ 100 |
| O=C(Nc1c(-c2ccc3nncn3c2)ccc2c1CCC2)NS(=O)(=O)c1cc2n(n1)CCO[C@@H]2C1CC1 (single isomer, unassigned) [Example 14] | 500 to 1000 |
| O=C(Nc1c(-c2ccn3nccc3c2)ccc2c1CCC2)NS(=O)(=O)c1cc2n(n1)CCO[C@H]2C1CC1 (single isomer, unassigned) [Example 5] | ≤ 100 |
| O=C(Nc1c(-c2ccc3ncnn3c2)ccc2c1CCC2)NS(=O)(=O)c1cc2n(n1)CCO[C@H]2C1CC1 (single isomer, unassigned) [Example 8] | 100 to 500 |
| Cc1cc2c(c(NC(=O)NS(=O)(=O)c3cnc4c(c3)N(C3CC3)CCO4)c1-c1ccn3nccc3c1)CCC2 [Example 25, 1-cyclopropyl-N-((6-methyl-5-(pyrazolo[1,5-a]pyridin-5-yl)-2,3-dihydro-1H-inden-4-yl)carbamoyl)-2,3-dihydro-1H-pyrido[2,3-b][1,4]oxazine-7-sulfonamide] | ≤ 100 |
| Cc1cc2c(c(NC(=O)NS(=O)(=O)c3cn4c(n3)C(C3CC3)OCC4)c1-c1ccn3nccc3c1)CCC2 (stereo not drawn) [Example 18, 8-cyclopropyl-N-((6-methyl-5-(pyrazolo[1,5-a]pyridin-5-yl)-2,3-dihydro-1H-inden-4-yl)carbamoyl)-5,6-dihydro-8H-imidazo[2,1-c][1,4]oxazine-2-sulfonamide] | ≤ 100 |
| Cc1cc2c(c(NC(=O)NS(=O)(=O)c3cc4n(n3)CCO[C@@H]4C3CC3)c1-c1ccn3ccnc3c1)CCC2 (single isomer, unassigned) [Example 15] | ≤ 100 |
| O=C(Nc1c(-c2ccc3ncnn3c2)ccc2c1CCC2)NS(=O)(=O)c1cc2n(n1)CCO[C@@H]2C1CC1 (single isomer, unassigned) [Example 4] | 100 to 500 |
| CO[C@@H]1COc2c(S(=O)(=O)NC(=O)Nc3c4c(cc(C)c3-c3ccn5nccc5c3)CCC4)cnn2C1 [Example 27, (S)-6-methoxy-N-((6-methyl-5-(pyrazolo[1,5-a]pyridin-5-yl)-2,3-dihydro-1H-inden-4-yl)carbamoyl)-6,7-dihydro-5H-pyrazolo[5,1-b][1,3]oxazine-3-sulfonamide] | ≤ 100 |
